Results published in article PMC9167041 (Computational and Structural Biotechnology Journal, 2022).

Biological target: SARS-CoV-2 M^pro (Severe acute respiratory syndrome coronavirus 2, UniProt P0DTD1)
Test: SARS-CoV-2 Mpro in vitro enzyme-based assay
Assay type: biochemical
Settings: compound at 10 μM

C=C1CCC2[C@](C)(COC(C)=O)[C@H](OC(C)=O)CC[C@@]2(C)[C@@H]1C[C@H](SC(=S)N1CCN(C(=O)C2COc3ccccc3O2)CC1)C1=CCOC1=O (stereo partly shown) [3j]
inhibition of SARS-CoV-2 M^pro: rather low inhibitory effect
